Test results taken from US7732582B2, “Benzonaphthacene glycoside derivative and use thereof” (FUJIFILM Corporation, priority 2004, dated 2010).
In brackets after ≈: the same amount, converted by molar mass.

Assays:
Mannan binding test = test: Mannan binding test; set-up: species or system yeast; conditions: PBS(+); incubation at 30° C. for 24 hours; ~0: below detection limit (trace)
Method: A PBS(+) solution (100 μl) of mannan (Sigma, derived from yeast, 50 μg/ml) and a PBS(+) solution (100 μl) of each test compound (40 μg/ml) were mixed, and incubated at 30° C. for 24 hours. Then, the mixture was centrifuged (14,000 rpm, 4° C., 5 minutes), the supernatant was diluted 10 times with 0.01 N sodium hydroxide solution, and absorbance of the diluted mixture was measured at 500 nm. The amount of the dissolved compound was calculated on the basis of E1 cm1%180 (500 nm), and the amount of the compound binding to mannan was calculated.

[1] = Solubility test in PBS(−) and PBS(+) solution; assay type: physicochemical; conditions: for Solubility PBS(+): PBS(+) solution (with CaCl2 and MgCl2); for Solubility PBS (−): PBS(−) solution, ultrasonicated at 30° C. 10 minutes, room temperature 2 hours, absorbance at 500 nm
Method: PBS tablets (ICN Bioohemi Inc., containing 0.02 g of KH2PO4, 0.115 g of Na2HPO4, 0.02 g of KCl and […] of NaCl per tablet) were dissolved in distilled water (100 ml), and the solution was autoclaved to obtain a PBS(−) solution. The PBS(−) solution (80 ml) was added with CaCl2 dihydrate (1 g/L, 10 ml) and MgCl2 hexahydrate (1 g/L, 10 ml) to prepare a PBS(+) solution.
Each test compound (1 mg) was added to the PBS(−) solution (300 μl), and the mixture was ultrasonicated at 30° C. for 10 minutes, and left at room temperature for 2 hours. Then, the mixture was centrifuged (12,000 rpm, 10 minutes), the supernatant was diluted 50 times with 0.01 N sodium hydroxide solution, and absorbance of the diluted mixture was measured at 500 nm.
The solubility in the PBS(+) solution can also be obtained in a similar manner.

C. neoformans ATCC 90112 = test: Antifungal activity test, agar dilution method; assay type: cell-based; conditions: for MIC C. neoformans ATCC 90112: yeast morphology agar, pH 7.0, 30° C. for 2 days; for antifungal activity against C. neoformans (in words): compared with control BMY28864
Method: (§1) Antifungal activity was measured by the agar dilution method utilizing the yeast morphology agar (0.15 M phosphate buffer, pH 7.0). Each microorganism was inoculated in an amount of 5 μl of 2×10^6 cells/ml solution per spot, and cultured at 30° C. for 2 days. The results were represented in terms of the minimum growth inhibitory concentration. As a control compound, BMY28864 was used.

C. albicans A9540 = test: Antifungal activity test, agar dilution method; assay type: cell-based; conditions: for MIC C. albicans A9540: yeast morphology agar, pH 7.0, 30° C. for 2 days; for antifungal activity against C. albicans (in words): compared with control BMY28864
Method: as §1

A. fumigatus IFO8866 = test: Antifungal activity test, agar dilution method; assay type: cell-based; conditions: for MIC A. fumigatus IFO8866: yeast morphology agar, pH 7.0, 30° C. for 2 days; for antifungal activity against A. fumigatus (in words): compared with control BMY28864
Method: as §1

SMILES: COc1cc(O)c2c(c1)C(=O)c1c(cc3c(c1O)-c1c(cc(C)c(C(=O)N[C@H](CO)C(=O)O)c1O)[C@H](O[C@@H]1O[C@H](C)[C@H](N(C)C)[C@H](O[C@@H]4OC[C@@H](O)[C@H](O)[C@H]4O)[C@H]1O)[C@H]3O)C2=O [BMY28864, N,N′-dimethylpradimicin FA-2, reference compound]
- Binding to mannan (Mannan binding test): 0.81 μg/1 μg of mannan
- Solubility PBS(+) [1]: 16,000 μg/ml
- Solubility PBS (−) [1]: 14,000 μg/ml
- MIC C. neoformans ATCC 90112 (C. neoformans ATCC 90112): 3.1 µg/mL (≈ 3.56 µM)
- MIC C. albicans A9540 (C. albicans A9540): 6.3 µg/mL (≈ 7.23 µM)
- MIC A. fumigatus IFO8866 (A. fumigatus IFO8866): 12.5 µg/mL (≈ 14.4 µM)

SMILES: COc1cc(O)c2c(c1)C(=O)c1c(cc3c(c1O)-c1c(cc(C)c(C(=O)N[C@H](CO)C(=O)O)c1O)[C@H](O[C@@H]1O[C@H](C)[C@H](N(C)C)[C@H](O[C@H](OCC(=O)O)C(=O)O)[C@H]1O)[C@H]3O)C2=O [BMY28864-DCA]
- Binding to mannan (Mannan binding test): 0.28 μg/1 μg of mannan
- Solubility PBS(+) [1]: 37,500 μg/ml
- Solubility PBS (−) [1]: 37,500 μg/ml
- antifungal activity against C. neoformans (in words) (C. neoformans ATCC 90112): maintained
- MIC C. neoformans ATCC 90112 (C. neoformans ATCC 90112): 25 µg/mL (≈ 28.7 µM)
- antifungal activity against C. albicans (in words) (C. albicans A9540): maintained
- MIC C. albicans A9540 (C. albicans A9540): 12.5 µg/mL (≈ 14.4 µM)
- antifungal activity against A. fumigatus (in words) (A. fumigatus IFO8866): relatively low
- MIC A. fumigatus IFO8866 (A. fumigatus IFO8866): >50 µg/mL

SMILES: COc1cc(O)c2c(c1)C(=O)c1c(cc3c(c1O)-c1c(cc(C)c(C(=O)N[C@H](C)C(=O)O)c1O)[C@H](O[C@@H]1O[C@H](C)[C@H](N(C)C)[C@H](O[C@@H]4OC[C@@H](O)[C@H](O)[C@H]4O)[C@H]1O)[C@H]3O)C2=O [N,N-Me2-PRM C, reference compound]
- Binding to mannan (Mannan binding test): 0.79 μg/1 μg of mannan
- Solubility PBS(+) [1]: 950 µg/mL (≈ 1110 µM)
- Solubility PBS (−) [1]: 1,900 μg/ml

SMILES: COc1cc(O)c2c(c1)C(=O)c1c(cc3c(c1O)-c1c(cc(C)c(C(=O)N[C@H](C)C(=O)O)c1O)[C@H](O[C@@H]1O[C@H](C)[C@H](N(C)C)[C@H](O[C@H](OCC(=O)O)C(=O)O)[C@H]1O)[C@H]3O)C2=O [N,N-Me2-PRM C-DCA]
- Binding to mannan (Mannan binding test): ~0 μg/1 μg of mannan
- Solubility PBS(+) [1]: 1,850 μg/ml
- Solubility PBS (−) [1]: 1,400 μg/ml
- antifungal activity against C. neoformans (in words) (C. neoformans ATCC 90112): almost equal to those of BMY28884
- MIC C. neoformans ATCC 90112 (C. neoformans ATCC 90112): 3.1 µg/mL (≈ 3.63 µM)
- antifungal activity against C. albicans (in words) (C. albicans A9540): almost equal to those of BMY28884
- MIC C. albicans A9540 (C. albicans A9540): 6.3 µg/mL (≈ 7.37 µM)
- antifungal activity against A. fumigatus (in words) (A. fumigatus IFO8866): lower than that of BMY28884
- MIC A. fumigatus IFO8866 (A. fumigatus IFO8866): 25 µg/mL (≈ 29.2 µM)

SMILES: CN[C@@H]1[C@H](O[C@@H]2OC[C@@H](O)[C@H](O)[C@H]2O)[C@@H](O)[C@H](O[C@H]2c3cc(C)c(C(=O)N[C@H](C)C(=O)O)c(O)c3-c3c(cc4c(c3O)C(=O)c3cc(OC)cc(O)c3C4=O)[C@@H]2O)O[C@@H]1C [PRM A, Pradimicin (PRM) A, reference compound]
- Binding to mannan (Mannan binding test): 0.89 μg/1 μg of mannan
- Solubility PBS(+) [1]: 68.5 µg/mL (≈ 81.5 µM)
- Solubility PBS (−) [1]: 39.5 µg/mL (≈ 47 µM)

SMILES: CN[C@@H]1[C@H](O[C@H](OCC(=O)O)C(=O)O)[C@@H](O)[C@H](O[C@H]2c3cc(C)c(C(=O)N[C@H](C)C(=O)O)c(O)c3-c3c(cc4c(c3O)C(=O)c3cc(OC)cc(O)c3C4=O)[C@@H]2O)O[C@@H]1C [PRM A-DCA]
- Binding to mannan (Mannan binding test): 0.02 μg/1 μg of mannan
- Solubility PBS(+) [1]: 2,300 μg/ml
- Solubility PBS (−) [1]: 2,250 μg/ml
- antifungal activity against C. neoformans (in words) (C. neoformans ATCC 90112): maintained
- MIC C. neoformans ATCC 90112 (C. neoformans ATCC 90112): 12.5 µg/mL (≈ 14.9 µM)
- antifungal activity against C. albicans (in words) (C. albicans A9540): maintained
- MIC C. albicans A9540 (C. albicans A9540): 6.3 µg/mL (≈ 7.49 µM)
- antifungal activity against A. fumigatus (in words) (A. fumigatus IFO8866): relatively low
- MIC A. fumigatus IFO8866 (A. fumigatus IFO8866): >50 µg/mL
